Converted amounts (≈) assume the structure as drawn. Where two headings read alike, the source gives them in different places.
Columns and labels:
[1] = test system: S. hemolyticus UC 152; test: standard microplate test in BHI Agar (MIC), S. hemolyticus UC 152; type: cell-based, Streptococcus hemolyticus; conditions: Streptococcus pyogenes, UC152, 20 h
Experimental: (§1) Compounds were also tested in a standard microplate test in Brain Heart Infusion (BHI) Agar, at a concentration of 1 mg/ml. Incubation is at 37° and end points are read at 20 hours. Brain Heart Infusion Agar (supplied by Difco Laboratories, Detroit, Michigan, U.S.A.) has the following composition:
(§2) Compounds (7β), (7α) and (9) were tested again along with compounds (11) and (14β) against a neamine control using the same conditions as given above.

[2] = test system: B. subtilis; test: standard disc plate assay, 12.5 mm paper discs (zone of inhibition), B. subtilis; type: cell-based, Bacillus subtilis
Text: (§3) The novel intermediates, disclosed herein, are useful to make novel aminoglycoside antibiotics. These novel aminoglycoside antibiotics are antibacterially active, and, thus, they can be used in various environments to eradicate or control sensitive bacteria. Following are in vitro antibacterial test results for representative compounds of the subject invention. The results were obtained with a standard disc plate assay using 12.5 mm paper discs.

[3] = test system: P. rettgeri UC 339; test: standard microplate test in BHI Agar (MIC), P. rettgeri UC 339; type: cell-based; conditions: Providencia rettgeri, UC339, 20 h; P. rettgeri UC 339; retest table, group (9), (11), (7α), neamine control; read-out: Minimum Inhibitory Concentration
Experimental: as §1, §2

[4] = test system: S. flexneri UC 143; test: standard microplate test in BHI Agar (MIC), S. flexneri UC 143; type: cell-based; conditions: Shigella flexneri, UC143, 20 h, retest table, group (9), (11), (7α), neamine control, read-out: Minimum Inhibitory Concentration
Experimental: as §1, §2

[5] = test system: B. cereus; test: standard disc plate assay, 12.5 mm paper discs (zone of inhibition), B. cereus; type: cell-based, Bacillus cereus; conditions: for zone of inhibition at 10000 µg/mL: 10 mg/ml; for active against Bacillus cereus: conclusion in words from the above results
Text: as §3

[6] = test system: P. mirabilis A-63; test: standard microplate test in BHI Agar (MIC), P. mirabilis A-63; type: cell-based; conditions: Proteus mirabilis, A63, 20 h; P. mirabilis A-63; retest table, group (9), (11), (7α), neamine control; read-out: Minimum Inhibitory Concentration
Experimental: as §1, §2

[7] = test system: St. faecalis UC 694; test: standard microplate test in BHI Agar (MIC), St. faecalis UC 694; type: cell-based; conditions: Enterococcus faecalis, UC694, 20 h, read-out: Minimum Inhibitory Concentration
Experimental: as §1, §2

[8] = test system: S. aureus UC 76; test: standard microplate test in BHI Agar (MIC), S. aureus UC 76; type: cell-based, Staphylococcus aureus; conditions: Staphylococcus aureus, UC76, 20 h
Experimental: as §1, §2

[9] = test system: K. pneumoniae UC 58; test: standard microplate test in BHI Agar (MIC), K. pneumoniae UC 58; type: cell-based; conditions: Klebsiella pneumoniae, UC58, 20 h
Experimental: as §1, §2

[10] = test system: D. pneumoniae UC 41; test: standard microplate test in BHI Agar (MIC), D. pneumoniae UC 41; type: cell-based; conditions: Streptococcus pneumoniae, UC41, 20 h
Experimental: as §1, §2

[11] = test system: Ps. aeruginosa UC 95; test: standard microplate test in BHI Agar (MIC), Ps. aeruginosa UC 95; type: cell-based; conditions: Pseudomonas aeruginosa, UC95, 20 h, Ps. aeruginosa UC 95, read-out: Minimum Inhibitory Concentration
Experimental: as §1, §2

[12] = test system: S. marcescens UC 131; test: standard microplate test in BHI Agar (MIC), S. marcescens UC 131; type: cell-based; conditions: Serratia marcescens, UC131, 20 h; S. marcescens UC 131; retest table, group (9), (11), (7α), neamine control; read-out: Minimum Inhibitory Concentration
Experimental: as §1, §2

[13] = test system: E. coli UC 45; test: standard microplate test in BHI Agar (MIC), E. coli UC 45; type: cell-based; conditions: Escherichia coli, UC45, 20 h
Experimental: as §1, §2

[14] = test system: P. vulgaris UC 93; test: standard microplate test in BHI Agar (MIC), P. vulgaris UC 93; type: cell-based; conditions: Proteus vulgaris, UC93, 20 h
Experimental: as §1, §2

[15] = test system: S. schottmuelleri UC 126; test: standard microplate test in BHI Agar (MIC), S. schottmuelleri UC 126; type: cell-based; conditions: 20 h, BHI agar, 37°, first table, read-out: Minimum Inhibitory Concentration
Experimental: as §1, §2

[16] = test system: S. typhi TG-3; test: standard microplate test in BHI Agar (MIC), S. typhi TG-3; type: cell-based; conditions: Salmonella enterica, 20 h, read-out: Minimum Inhibitory Concentration
Experimental: as §1, §2

[17] = test system: S. aureus UC 746; test: standard microplate test in BHI Agar (MIC), S. aureus UC 746; type: cell-based; conditions: Staphylococcus aureus, UC746, 37°, 20 h, first table, read-out: Minimum Inhibitory Concentration
Experimental: as §1, with “composition: […]” for “composition:”

[18] = test system: P. morgani UC 3186; test: standard microplate test in BHI Agar (MIC), P. morgani UC 3186; type: cell-based; conditions: 20 h, retest table, group (9), (11), (7α), neamine control
Experimental: as §1, §2

[19] = test system: S. aureus UC 570; test: standard microplate test in BHI Agar (MIC), S. aureus UC 570; type: cell-based; conditions: Staphylococcus aureus, UC570, 20 h, 37°, first table, read-out: Minimum Inhibitory Concentration
Experimental: as §1, with “composition: […]” for “composition:”

[20] = S. hemolyticus UC 152, retest table, group (9), (11), (7α), neamine control, read-out: Minimum Inhibitory Concentration
[21] = S. faecalis UC 694, retest table, group (9), (11), (7α), neamine control
[22] = K. pneumoniae UC 58, retest table, group (9), (11), (7α), neamine control, read-out: Minimum Inhibitory Concentration
[23] = retest table, group (9), (11), (7α), neamine control

## NC[C@H]1O[C@H](O[C@H]2[C@H](O)[C@@H](O[C@H]3O[C@H](CO)[C@@H](O)[C@H]3O)[C@H](N)C[C@@H]2N)[C@H](N)[C@@H](O)[C@@H]1O [(7α), 6-O-(α-D-Ribofuranosyl)neamine]
[1]; read-out: Minimum Inhibitory Concentration, S. hemolyticus UC 152, BHI agar, 37°, 20 h, first table
  MIC: 31.2 µg/mL (≈ 68.7 µM)
[1]; [20]
  MIC: 7.8 µg/mL (≈ 17.2 µM)
[2]; Bacillus subtilis, B. subtilis, 5 mg/ml
  zone of inhibition at 5000 µg/mL: 32 mm
[2]; Bacillus subtilis, B. subtilis, 10 mg/ml
  zone of inhibition at 10000 µg/mL: 34 mm
[2]; conclusion in words from the above results
  active against Bacillus subtilis: active
[3]
  MIC: 1000 µg/mL (≈ 2200 µM)
[4]
  MIC: 125 µg/mL (≈ 275 µM)
[5]; Bacillus cereus, B. cereus, 5 mg/ml
  zone of inhibition at 5000 µg/mL: 25 mm
[5]; Bacillus cereus, B. cereus
  zone of inhibition at 10000 µg/mL: 32 mm
[5]
  active against Bacillus cereus: active
[6]
  MIC: 500 µg/mL (≈ 1100 µM)
[7]; [21]
  MIC: 1000 µg/mL (≈ 2200 µM)
[7]; St. faecalis UC 694, BHI agar, 37°, 20 h, first table
  MIC: > 1000 µg/mL
[8]; S. aureus 284 UC 76, BHI agar, 37°, 20 h, first table, read-out: Minimum Inhibitory Concentration
  MIC: 1000 µg/mL (≈ 2200 µM)
[8]; read-out: Minimum Inhibitory Concentration, S. aureus UC 76, retest table, group (9), (11), (7α), neamine control
  MIC: 62.5 µg/mL (≈ 138 µM)
[9]; read-out: Minimum Inhibitory Concentration, K. pneumoniae UC 58, BHI agar, 37°, 20 h, first table
  MIC: 62.5 µg/mL (≈ 138 µM)
[9]; [22]
  MIC: 7.8 µg/mL (≈ 17.2 µM)
[10]; D. pneumoniae UC 41, BHI agar, 37°, 20 h, first table, read-out: Minimum Inhibitory Concentration
  MIC: > 1000 µg/mL
[10]; read-out: Minimum Inhibitory Concentration, D. pneumoniae UC 41, retest table, group (9), (11), (7α), neamine control
  MIC: 125 µg/mL (≈ 275 µM)
[11]; BHI agar, 37°, 20 h, first table
  MIC: > 1000 µg/mL
[11]; [23]
  MIC: 1000 µg/mL (≈ 2200 µM)
[12]
  MIC: 250 µg/mL (≈ 550 µM)
[13]; E. coli UC 45, BHI agar, 37°, 20 h, first table, read-out: Minimum Inhibitory Concentration
  MIC: 500 µg/mL (≈ 1100 µM)
[13]; read-out: Minimum Inhibitory Concentration, E. coli UC 45, retest table, group (9), (11), (7α), neamine control
  MIC: 62.5 µg/mL (≈ 138 µM)
[14]; P. vulgaris UC 93, BHI agar, 37°, 20 h, first table, read-out: Minimum Inhibitory Concentration
  MIC: 1000 µg/mL (≈ 2200 µM)
[14]; read-out: Minimum Inhibitory Concentration, P. vulgaris UC 93, retest table, group (9), (11), (7α), neamine control
  MIC: 125 µg/mL (≈ 275 µM)
[15]
  MIC: 500 µg/mL (≈ 1100 µM)
[16]
  MIC: 62.5 µg/mL (≈ 138 µM)
[17]
  MIC: 1000 µg/mL (≈ 2200 µM)
[18]; read-out: Minimum Inhibitory Concentration, P. morgani UC 3186
  MIC: 125 µg/mL (≈ 275 µM)
[19]
  MIC: 500 µg/mL (≈ 1100 µM)

## NC[C@H]1O[C@H](O[C@H]2[C@H](O)[C@@H](O)[C@H](N)C[C@@H]2N)[C@H](N)[C@@H](O[C@@H]2O[C@H](CO)[C@@H](O)[C@H](O)[C@H]2O)[C@@H]1O [(11), 3'-O-(β-D-glucopyranosyl)neamine]
[1]; [20]
  MIC: 1000 µg/mL (≈ 2060 µM)
[3]
  MIC: 1000 µg/mL (≈ 2060 µM)
[4]
  MIC: 1000 µg/mL (≈ 2060 µM)
[5]; Bacillus cereus, B. cereus
  zone of inhibition at 10000 µg/mL: 16 mm
[5]
  active against Bacillus cereus: active
[6]
  MIC: 1000 µg/mL (≈ 2060 µM)
[7]; [21]
  MIC: 1000 µg/mL (≈ 2060 µM)
[8]; S. aureus UC 76, retest table, group (9), (11), (7α), neamine control, read-out: Minimum Inhibitory Concentration
  MIC: 1000 µg/mL (≈ 2060 µM)
[9]; [22]
  MIC: 1000 µg/mL (≈ 2060 µM)
[10]; D. pneumoniae UC 41, retest table, group (9), (11), (7α), neamine control, read-out: Minimum Inhibitory Concentration
  MIC: 1000 µg/mL (≈ 2060 µM)
[11]; [23]
  MIC: 1000 µg/mL (≈ 2060 µM)
[12]
  MIC: 1000 µg/mL (≈ 2060 µM)
[13]; E. coli UC 45, retest table, group (9), (11), (7α), neamine control, read-out: Minimum Inhibitory Concentration
  MIC: 1000 µg/mL (≈ 2060 µM)
[14]; P. vulgaris UC 93, retest table, group (9), (11), (7α), neamine control, read-out: Minimum Inhibitory Concentration
  MIC: 1000 µg/mL (≈ 2060 µM)
[16]
  MIC: 1000 µg/mL (≈ 2060 µM)
[18]; P. morgani UC 3186, read-out: Minimum Inhibitory Concentration
  MIC: 1000 µg/mL (≈ 2060 µM)

From patent US3984393A, “Aminoglycoside antibiotics” (The Upjohn Company, priority 1975, dated 1976)
